Measured values published in US11117861B2, “Phenylpyrrolidinone formyl peptide 2 receptor agonists” (BRISTOL-MYERS SQUIBB COMPANY, priority 2018, dated 2021).

Legend:
[1] = target: human FPR2 (Homo sapiens (Human), UniProt P25090); experiment: FPR2 cyclic adenosine monophosphate (cAMP) assay in CHO cells overexpressing human FPR2; format: cell-based; settings: forskolin 5 μM, inhibition of cAMP production, read-out: hFPR2 cAMP2 EC50
From the text: N-formyl peptide receptors (FPRs) are a family of chemo attractant receptors that facilitate leukocyte response during inflammation. FPRs belong to the seven-transmembrane G protein-coupled receptor superfamily and are linked to inhibitory G-proteins (Gi). Three family members (FPR1, FPR2 and FPR3) have been identified in humans and are predominantly found in myeloid cells with varied distribution and have also been reported in multiple organs and tissues. After agonist binding, the FPRs activate a multitude of physiological pathways, such as intra cellular signaling transduction, Ca^2+ mobilization and transcription. The family interacts with a diverse set of ligands that includes proteins, polypeptides and fatty acid metabolites which activate both pro-inflammatory and pro-resolution downstream responses. […]
FPR2 and FPR1 Cyclic Adenosine Monophosphate (cAMP) Assays. […] The level of intracellular cAMP was determined using the HTRF HiRange cAMP assay reagent kit (Cisbio) according to manufacturer's instruction. […] After a 1-h room temperature incubation, time-resolved fluorescence intensity was measured using the Envision (Perkin-Elmer) at 400 nm excitation and dual emission at 590 nm and 665 nm. […] The potency and activity of a compound to inhibit cAMP production was then determined by fitting to a 4-parametric logistic equation from a plot of cAMP level versus compound concentrations. […]

[2] = target: human FPR1 (Homo sapiens (Human), UniProt P21462); experiment: FPR1 cyclic adenosine monophosphate (cAMP) assay in CHO cells overexpressing human FPR1; format: cell-based; settings: forskolin 10 μM, inhibition of cAMP production, read-out: hFPR1 cAMP EC50
human FPR1, sequence (P21462 whole entry): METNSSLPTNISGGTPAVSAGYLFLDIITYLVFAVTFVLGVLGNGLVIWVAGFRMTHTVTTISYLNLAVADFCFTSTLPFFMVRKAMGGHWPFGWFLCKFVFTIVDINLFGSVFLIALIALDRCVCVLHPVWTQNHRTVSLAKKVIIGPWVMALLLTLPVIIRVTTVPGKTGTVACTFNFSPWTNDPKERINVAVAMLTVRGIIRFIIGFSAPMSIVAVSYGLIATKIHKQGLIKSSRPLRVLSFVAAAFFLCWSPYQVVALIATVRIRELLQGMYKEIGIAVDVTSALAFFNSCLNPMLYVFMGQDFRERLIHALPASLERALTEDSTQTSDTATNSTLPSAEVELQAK
Procedure: FPR2 and FPR1 Cyclic Adenosine Monophosphate (cAMP) Assays were used to measure the activity of the compounds in this patent.
A mixture of forskolin (5 μM final for FPR2 or 10 μM final for FPR1) and IBMX (200 μM final) were added to 384-well Proxiplates (Perkin-Elmer) pre-dotted with test compounds in DMSO (1% final) at final concentrations in the range of 0.020 nM to 100 μM. Chinese Hamster Ovary cells (CHO) overexpressing human FPR1 or human FPR2 receptors were cultured in F-12 (Ham's) medium supplemented with 10% qualified FBS, 250 μg/ml zeocin and 300 μg/ml hygromycin (Life Technologies). Reactions were initiated by adding 2,000 human FPR2 cells per well or 4,000 human FPR1 cells per well in Dulbecco's PBS (with calcium and magnesium) (Life Technologies) supplemented with 0.1% BSA (Perkin-Elmer). The reaction mixtures were incubated for 30 min at room temperature. The level of intracellular cAMP was determined using the HTRF HiRange cAMP assay reagent kit (Cisbio) according to manufacturer's instruction. Solutions of cryptate conjugated anti-cAMP and d2 flurorophore-labelled cAMP were made in a supplied lysis buffer separately. […] The potency and activity of a compound to inhibit cAMP production was then determined by fitting to a 4-parametric logistic equation from a plot of cAMP level versus compound concentrations.

human FPR2, sequence (P25090 whole entry): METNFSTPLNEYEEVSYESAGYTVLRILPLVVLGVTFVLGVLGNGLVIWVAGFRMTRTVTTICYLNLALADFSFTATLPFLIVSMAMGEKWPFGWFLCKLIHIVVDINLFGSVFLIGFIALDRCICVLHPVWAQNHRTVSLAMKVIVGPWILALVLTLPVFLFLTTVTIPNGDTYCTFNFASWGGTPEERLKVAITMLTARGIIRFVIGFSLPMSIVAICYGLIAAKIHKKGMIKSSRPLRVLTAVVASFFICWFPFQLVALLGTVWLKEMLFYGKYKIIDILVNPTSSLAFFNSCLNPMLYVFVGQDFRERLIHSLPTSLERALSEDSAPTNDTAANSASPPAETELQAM

COc1c(-c2ccccc2CO)ccc(N2CC[C@@H](NC(=O)Nc3ccc(Cl)cc3F)C2=O)c1F [Example 35]
EC50 [1]: 0.0086 µM
EC50 [2]: 0.052 µM
